From the OligoGym collection come the findings set out here.

HELM strings list units from the 5' end as sugar, base in round brackets, then linkage (d deoxyribose, r ribose, m 2'-O-methyl, p phosphodiester). Strings are as the collection lists them; they lack the last nucleoside at the 3' end of the tested compound. [moe] = 2'-O-(2-methoxyethyl) (MOE); [sp] = phosphorothioate linkage; [m5C] = 5-methylcytosine

This data set addresses SCN2A. In words: mouse, dose not given. The following applies: ASO.
Take “RNA1{[moe](T)[sp].[moe](A)p.[moe](A)p.[moe](T)p.d([m5C])[sp].d(A)[sp].d([m5C])[sp].d(T)[sp].d(T)[sp].d(T)[sp].d([m5C])[sp].d(A)[sp].d(T)[sp].d([m5C])[sp].[moe]([m5C])p.[moe](A)p.[moe]([m5C])p.[moe](G)[sp].[moe](A)}$$$$ (last 3' nucleoside missing)”: the 3 h FOB score was 0 score 0-7.

Consider “RNA1{[moe]([m5C])[sp].[moe]([m5C])p.[moe](A)p.[moe]([m5C])p.d(G)[sp].d([m5C])[sp].d(T)[sp].d(T)[sp].d(A)[sp].d([m5C])[sp].d(A)[sp].d(T)[sp].d([m5C])[sp].d(A)[sp].[moe](A)p.[moe](A)p.[moe]([m5C])p.[moe](A)[sp].[moe](T)}$$$$ (last 3' nucleoside missing)”, for which the 3 h FOB score was 0 score 0-7.

“RNA1{[moe](G)[sp].[moe](G)p.[moe](T)p.[moe]([m5C])p.[moe](T)p.d([m5C])[sp].d(T)[sp].d(T)[sp].d(A)[sp].d(G)[sp].d([m5C])[sp].d(T)[sp].d(T)[sp].d(T)[sp].d([m5C])[sp].[moe](T)p.[moe]([m5C])p.[moe](T)[sp].[moe](T)}$$$$ (last 3' nucleoside missing)” showed a 3 h FOB score of 4 score 0-7.

Consider “RNA1{[moe](A)[sp].[moe]([m5C])p.[moe]([m5C])p.[moe](G)p.[moe](T)p.d([m5C])[sp].d(T)[sp].d([m5C])[sp].d(T)[sp].d(T)[sp].d(T)[sp].d([m5C])[sp].d(T)[sp].d(T)[sp].d(A)[sp].[moe](T)p.[moe](T)p.[moe](T)[sp].[moe]([m5C])}$$$$ (last 3' nucleoside missing)”, for which the 3 h FOB score was found to be 7 score 0-7.

For “RNA1{[moe](T)[sp].[moe]([m5C])p.[moe](T)p.[moe](G)p.[moe]([m5C])p.d(A)[sp].d(T)[sp].d(G)[sp].d(T)[sp].d(A)[sp].d(A)[sp].d([m5C])[sp].d([m5C])[sp].d(T)[sp].d(T)[sp].[moe](T)p.[moe](A)p.[moe](T)[sp].[moe](A)}$$$$ (last 3' nucleoside missing)”, the 3 h FOB score was 0 score 0-7.

Substance “RNA1{[moe](A)[sp].[moe](A)p.[moe](T)p.[moe]([m5C])p.[moe](A)p.d([m5C])[sp].d(T)[sp].d(T)[sp].d(T)[sp].d([m5C])[sp].d(A)[sp].d(T)[sp].d([m5C])[sp].d([m5C])[sp].d(A)[sp].[moe]([m5C])p.[moe](G)p.[moe](A)[sp].[moe]([m5C])}$$$$ (last 3' nucleoside missing)” showed a 3 h FOB score of 0 score 0-7.

“RNA1{[moe](T)[sp].[moe](G)p.[moe](T)p.[moe](T)p.[moe](T)p.d(G)[sp].d(G)[sp].d(G)[sp].d(T)[sp].d([m5C])[sp].d(T)[sp].d([m5C])[sp].d(T)[sp].d(T)[sp].d(A)[sp].[moe](G)p.[moe]([m5C])p.[moe](T)[sp].[moe](T)}$$$$ (last 3' nucleoside missing)” gave a 3 h FOB score of 2.33 score 0-7.

“RNA1{[moe](A)[sp].[moe]([m5C])p.[moe](G)p.[moe](A)p.[moe]([m5C])p.[moe](A)p.d(T)[sp].d(A)[sp].d(T)[sp].d(T)[sp].d(T)[sp].d(T)[sp].d(T)[sp].d([m5C])[sp].d(T)[sp].d(A)[sp].[moe]([m5C])p.[moe](A)[sp].[moe]([m5C])}$$$$ (last 3' nucleoside missing)” displayed a 3 h FOB score of 0 score 0-7.

With “RNA1{[moe](A)[sp].[moe](A)p.[moe](G)p.[moe](T)p.[moe](A)p.d(G)[sp].d(T)[sp].d(A)[sp].d([m5C])[sp].d([m5C])[sp].d(A)[sp].d(T)[sp].d(T)[sp].d([m5C])[sp].d([m5C])[sp].[moe]([m5C])p.[moe](A)p.[moe](T)[sp].[moe]([m5C])}$$$$ (last 3' nucleoside missing)”, the 3 h FOB score worked out at 0 score 0-7.

Substance “RNA1{[moe](T)[sp].[moe]([m5C])p.[moe](T)p.[moe](G)p.[moe]([m5C])p.[moe](A)p.d(T)[sp].d(G)[sp].d(T)[sp].d(A)[sp].d(A)[sp].d([m5C])[sp].d([m5C])[sp].d(T)[sp].d(T)[sp].d(T)[sp].[moe](A)p.[moe](T)[sp].[moe](A)}$$$$ (last 3' nucleoside missing)” came in with a 3 h FOB score of 0 score 0-7.
